Results as given in PubChem BioAssay AID270 (DTP/NCI, 2004).
Where “and” joins values, the source holds several entries; their conditions need not be identical. Identical values can stand only once. Inconclusive results are not listed.

Test system: BDF1 mice, s.c. Lewis lung carcinoma, T/C %
Test: NCI In Vivo Anticancer Drug Screen. Data for tumor model Lewis Lung Carcinoma (subcutaneous) in B6D2F1 (BDF1) mice
Method in brief: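 Transplanted tumors grown in mice; compound vs vehicle dosing; endpoint survival or tumor size; ratio T/C.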

[1] = endpoint: median survival time, dose: 25.0 mg/kg/injection, schedule: Q01DX009 (ip), vehicle: Klucel (hydroxypropylcellulose) (HPC), higher = longer survival
[2] = endpoint: median survival time, dose: 50.0 mg/kg/injection, schedule: Q01DX009 (ip), vehicle: Klucel (hydroxypropylcellulose) (HPC), higher = longer survival
[3] = endpoint: median survival time, dose: 100.0 mg/kg/injection, schedule: Q01DX009 (ip), vehicle: Klucel (hydroxypropylcellulose) (HPC), higher = longer survival
[4] = endpoint: median survival time, dose: 200.0 mg/kg/injection, schedule: Q01DX009 (ip), vehicle: Klucel (hydroxypropylcellulose) (HPC), higher = longer survival

Question: Which T/C (endpoint: median survival time, dose: 6.25 mg/kg/injection, schedule: Q01DX001 (ip), vehicle: water, higher = longer survival) does the source give for `CN(C)C(=O)N(CCCl)N=O` here?
Answer: Its T/C is 102 % of control.

Question: What about the T/C (endpoint: median survival time, dose: 12.5 mg/kg/injection, schedule: Q01DX001 (ip), vehicle: water, higher = longer survival) of the same compound?
Answer: The T/C was 112 % of control.

Question: `C[C@H]1CC[C@@]2(NC1)O[C@H]1C[C@H]3[C@@H]4CC[C@H]5C[C@@H](O)CC[C@]5(C)[C@H]4CC[C@]3(C)[C@H]1[C@@H]2C` was tested. Which T/C (endpoint: mean tumor weight, dose: 3.13 mg/kg/injection, schedule: Q01DX011 (sc), vehicle: steriod suspending solution, higher = larger tumour) did it give?
Answer: Its T/C is 83 % of control.

Question: What about the T/C (endpoint: mean tumor weight, dose: 6.25 mg/kg/injection, schedule: Q01DX011 (sc), vehicle: steriod suspending solution, higher = larger tumour) of the same compound?
Answer: The T/C was 108 % of control.

Question: And the T/C (endpoint: mean tumor weight, dose: 12.5 mg/kg/injection, schedule: Q01DX011 (sc), vehicle: steriod suspending solution, higher = larger tumour)?
Answer: Its T/C is 96 % of control.

Question: And the T/C (endpoint: mean tumor weight, dose: 25.0 mg/kg/injection, schedule: Q01DX011 (sc), vehicle: steriod suspending solution, higher = larger tumour)?
Answer: The T/C was 96 % of control and 105 % of control.

Question: And the T/C (endpoint: mean tumor weight, dose: 50.0 mg/kg/injection, schedule: Q01DX011 (sc), vehicle: steriod suspending solution, higher = larger tumour)?
Answer: Its T/C is 119 % of control.

Question: What about the T/C (endpoint: mean tumor weight, dose: 100.0 mg/kg/injection, schedule: Q01DX011 (sc), vehicle: steriod suspending solution, higher = larger tumour) of the same compound?
Answer: Its T/C is 117 % of control.

Question: What about the T/C (endpoint: mean tumor weight, dose: 200.0 mg/kg/injection, schedule: Q01DX011 (sc), vehicle: steriod suspending solution, higher = larger tumour) of the same compound?
Answer: Its T/C is 110 % of control.

Question: And the T/C (endpoint: mean tumor weight, dose: 400.0 mg/kg/injection, schedule: Q01DX011 (sc), vehicle: steriod suspending solution, higher = larger tumour)?
Answer: Its T/C is 93 % of control.

Question: Which results are given for `C(/C=C/C=C/N1CCCCC1)=[N+]1CCCCC1`?
Answer: T/C (endpoint: median survival time, dose: 0.13 mg/kg/injection, schedule: Q01DX009 (ip), vehicle: saline, higher = longer survival): 101 % of control; T/C (endpoint: median survival time, dose: 0.25 mg/kg/injection, schedule: Q01DX009 (ip), vehicle: saline, higher = longer survival): 110 % of control; T/C (endpoint: median survival time, dose: 0.5 mg/kg/injection, schedule: Q01DX009 (ip), vehicle: saline, higher = longer survival): 117 % of control; T/C (endpoint: median survival time, dose: 1.0 mg/kg/injection, schedule: Q01DX009 (ip), vehicle: saline, higher = longer survival): 110 % of control

Question: For `OC1CC2CCC(C1)N2CCCN1c2ccccc2Sc2ccc(Cl)cc21` (stereo unspecified), which T/C (endpoint: median survival time, dose: 12.5 mg/kg/injection, schedule: Q01DX009 (ip), vehicle: Klucel (hydroxypropylcellulose) (HPC), higher = longer survival) is on record?
Answer: The T/C was 95 % of control.

Question: And the T/C [1]?
Answer: The T/C was 96 % of control.

Question: And the T/C [2]?
Answer: The T/C was 99 % of control.

Question: Which results are given for `CC(C)CNc1ccc(S(=O)(=O)c2ccc(NCC(C)C)c([N+](=O)[O-])c2)cc1[N+](=O)[O-]`?
Answer: T/C (endpoint: median survival time, dose: 6.25 mg/kg/injection, schedule: Q01DX009 (ip), vehicle: saline with Tween-80, higher = longer survival): 110 % of control; T/C (endpoint: median survival time, dose: 12.5 mg/kg/injection, schedule: Q01DX009 (ip), vehicle: saline with Tween-80, higher = longer survival): 103 % of control; T/C (endpoint: median survival time, dose: 25.0 mg/kg/injection, schedule: Q01DX009 (ip), vehicle: saline with Tween-80, higher = longer survival): 109 % of control; T/C (endpoint: median survival time, dose: 50.0 mg/kg/injection, schedule: Q01DX009 (ip), vehicle: saline with Tween-80, higher = longer survival): 86 % of control

Question: Which results are given for `CNC(=O)Nc1ccccc1C(=O)NN`?
Answer: T/C [1]: 113 % of control; T/C [2]: 96 % of control; T/C [3]: 102 % of control; T/C [4]: 93 % of control

Question: Which T/C [2] does the source give for `CC(=O)Nc1ccc(Cl)c(Cl)c1` here?
Answer: Its T/C is 120 % of control and 124 % of control.

Question: And the T/C [3]?
Answer: Its T/C is 106 % of control.

Question: And the T/C [4]?
Answer: Its T/C is 98 % of control.

Question: Which T/C (endpoint: median survival time, dose: 0.1 mg/kg/injection, schedule: Q01DX009 (ip), vehicle: saline + alcohol, higher = longer survival) does the source give for `CC(=O)OC(C)C1C2=C(C(=O)CC1(C)O)C(=O)c1c(ccc(-c3ccc4c(c3O)C(=O)C3=C(C4=O)C(C(C)OC(C)=O)C(C)(O)CC3=O)c1O)C2=O` (stereo unspecified) here?
Answer: Its T/C is 112 % of control.

Question: What about the T/C (endpoint: median survival time, dose: 0.38 mg/kg/injection, schedule: Q01DX009 (ip), vehicle: saline + alcohol, higher = longer survival) of the same compound?
Answer: Its T/C is 122 % of control.

Question: What about the T/C (endpoint: median survival time, dose: 0.75 mg/kg/injection, schedule: Q01DX009 (ip), vehicle: saline + alcohol, higher = longer survival) of the same compound?
Answer: Its T/C is 119 % of control.

Question: And the T/C (endpoint: median survival time, dose: 1.5 mg/kg/injection, schedule: Q01DX009 (ip), vehicle: saline + alcohol, higher = longer survival)?
Answer: Its T/C is 97 % of control.

Question: What about the T/C (endpoint: median survival time, dose: 1.56 mg/kg/injection, schedule: Q01DX009 (ip), vehicle: saline with Tween-80, higher = longer survival) of the same compound?
Answer: Its T/C is 101 % of control.

Question: How did the T/C (endpoint: median survival time, dose: 3.12 mg/kg/injection, schedule: Q01DX009 (ip), vehicle: saline, higher = longer survival) turn out when `CCCCCC(CN(C)C)C(O)/C=C/c1ccccc1Cl` (stereo unspecified) was run?
Answer: The T/C was 99 % of control.

Question: And the T/C (endpoint: median survival time, dose: 6.25 mg/kg/injection, schedule: Q01DX009 (ip), vehicle: saline, higher = longer survival)?
Answer: The T/C was 95 % of control.

Question: And the T/C (endpoint: median survival time, dose: 12.5 mg/kg/injection, schedule: Q01DX009 (ip), vehicle: saline, higher = longer survival)?
Answer: Its T/C is 92 % of control.

Question: And the T/C (endpoint: median survival time, dose: 25.0 mg/kg/injection, schedule: Q01DX009 (ip), vehicle: saline, higher = longer survival)?
Answer: Its T/C is 99 % of control.

Question: And the T/C (endpoint: median survival time, dose: 50.0 mg/kg/injection, schedule: Q01DX009 (ip), vehicle: saline, higher = longer survival)?
Answer: The T/C was 108 % of control.

Question: How did the T/C (endpoint: mean tumor weight, dose: 22.5 mg/kg/injection, schedule: Q01DX011 (ip), vehicle: carboxymethylcellulose (CMC), higher = larger tumour) turn out when `Cc1ccc(N2CCN(CCCN3CCN(c4ccccc4Cl)CC3)CC2)cc1` was run?
Answer: The T/C was 108 % of control.

Question: What about the T/C (endpoint: mean tumor weight, dose: 45.0 mg/kg/injection, schedule: Q01DX011 (ip), vehicle: carboxymethylcellulose (CMC), higher = larger tumour) of the same compound?
Answer: The T/C was 45 % of control.

Question: What about the T/C (endpoint: mean tumor weight, dose: 90.0 mg/kg/injection, schedule: Q01DX011 (ip), vehicle: carboxymethylcellulose (CMC), higher = larger tumour) of the same compound?
Answer: The T/C was 38 % of control.
